pIC50: −log10 of the molar value.
Assays:
[1] = biological target: T1, LATS1 (Homo sapiens, UniProt O95835); assay: Kinase Assay method (Fluorospark Kinase/ADP Multi-Assay Kit); type: biochemical
T1 construct: purchased Carna Biosciences
T1 sequence (O95835 589-1130 limits assumed): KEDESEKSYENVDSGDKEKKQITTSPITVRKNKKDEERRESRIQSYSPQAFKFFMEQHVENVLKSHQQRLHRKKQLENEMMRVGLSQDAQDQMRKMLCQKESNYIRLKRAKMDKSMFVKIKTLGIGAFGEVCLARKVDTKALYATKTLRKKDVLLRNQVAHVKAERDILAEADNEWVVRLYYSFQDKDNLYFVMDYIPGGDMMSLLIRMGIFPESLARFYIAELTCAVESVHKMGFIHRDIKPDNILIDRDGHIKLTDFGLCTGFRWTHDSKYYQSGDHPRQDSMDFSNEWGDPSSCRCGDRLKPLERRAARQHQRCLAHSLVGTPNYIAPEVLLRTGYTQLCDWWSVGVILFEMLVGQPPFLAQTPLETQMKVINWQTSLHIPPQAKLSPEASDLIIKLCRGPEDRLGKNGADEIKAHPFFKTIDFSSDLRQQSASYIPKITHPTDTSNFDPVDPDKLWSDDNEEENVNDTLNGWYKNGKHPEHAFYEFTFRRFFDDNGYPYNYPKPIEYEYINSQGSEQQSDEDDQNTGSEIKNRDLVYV
Experimental: (§1) For compound k-1:B-1 (racemate), GA-002A, GA-002B, GA-005A and GA-005B, inhibitory activity evaluation (calculation of IC50) was performed on LATS1 and LATS2 (manufactured by Carna Biosciences). The activity was measured using the Kinase Assay method described below. The compounds were added such that the test concentration of k-1:B-1 (racemate), GA-002A, GA-002B, GA-005A and GA-005B was in 8 steps (10 μM, 1 μM, 100 nM, […], 10 nM, 3 nM, 1 nM, 0.3 nM) from the final concentration of 10 μM to 0.3 nM.
(§2) As the analysis method of the data, the mean signal of the control well containing reaction components other than the evaluation compound was set to 0% inhibition, the mean signal without enzyme addition was set to 100% inhibition, and the inhibition rate was calculated from the mean signal of 2 wells of each test substance test. IC50 value was calculated using EXSUS (version 7.1.6, manufactured by CAC EXICARE Corporation).
(§3) 2 μL of a compound of the present invention solution at 2.5-fold concentration, 1 μL of substrate at 5-fold concentration (SGKtide: NH2—CKKRNRRLSVA-COOH, manufactured by SignalChem), ATP (manufactured by Sigma-Aldrich), MgCl2 (manufactured by FUJIFILM Wako Pure Chemical Corporation) solution (final concentration 10 μM, 400 μM or 5 mM), and 2 μL of kinase solution at 2.5-fold concentration (final concentration of LATS1 or LATS2 5 μg/mL), each prepared with assay buffer (20 mM HEPES, 0.01% Triton X-100, 2 mM DTT, pH 7.5), were mixed in the wells of a polypropylene 384-well plate (manufactured by Greiner Bio-One, #784900) and reacted at room temperature for 5 hr. Successively, 5 μL detection solution (Fluorospark (registered trade mark)Kinase/ADP Multi-Assay Kit; manufactured by FUJIFILM Wako Pure Chemical Corporation) was added, and the mixture was reacted at room temperature 30 min. Successively, 5 μL of a reaction quenching liquid (Fluorospark (registered trade mark) Kinase/ADP Multi-Assay Kit; manufactured by FUJIFILM Wako Pure Chemical Corporation) was added to discontinue the reaction. Thereafter, the ADP concentration of the reaction solution was quantified by EnSpire (manufactured by PerkinElmer) to detect the kinase reaction.

[2] = biological target: T2, LATS2 (Homo sapiens, UniProt Q9NRM7); assay: as above; type: biochemical
T2 construct: purchased Carna Biosciences
T2 sequence (Q9NRM7 553-1088 limits assumed): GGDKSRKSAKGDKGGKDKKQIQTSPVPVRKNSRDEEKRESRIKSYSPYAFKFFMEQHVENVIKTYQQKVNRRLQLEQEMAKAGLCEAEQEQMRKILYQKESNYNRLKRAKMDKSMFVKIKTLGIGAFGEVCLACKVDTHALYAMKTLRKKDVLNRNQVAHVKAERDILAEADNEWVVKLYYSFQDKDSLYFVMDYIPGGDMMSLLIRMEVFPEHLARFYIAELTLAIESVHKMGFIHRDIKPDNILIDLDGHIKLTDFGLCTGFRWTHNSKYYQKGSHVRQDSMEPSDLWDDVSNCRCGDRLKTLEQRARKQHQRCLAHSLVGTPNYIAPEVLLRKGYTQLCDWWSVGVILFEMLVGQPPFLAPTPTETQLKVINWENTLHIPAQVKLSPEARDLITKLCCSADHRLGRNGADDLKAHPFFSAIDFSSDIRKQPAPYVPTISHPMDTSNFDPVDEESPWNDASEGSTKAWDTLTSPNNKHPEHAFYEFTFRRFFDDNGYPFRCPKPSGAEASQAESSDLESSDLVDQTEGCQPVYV
Experimental: as §1, §2, §3

[3] = Kinase Assay method, 8 steps 10 μM to 0.3 nM

**Q.** With CC/C(=N\NC(=O)C(C)Nc1ccccc1)c1ccc(O)c(C)c1O (stereo not drawn) [k-1:B-1] as the compound, how does the inhibition at 0.1 µM ([1]; 100 nM, read-out: LARS1 inhibitory rate (%)) read?
**A.** 94%

**Q.** What about the inhibition at 1 µM ([1]; 1000 nM, read-out: LARS1 inhibitory rate (%)) of the same compound?
**A.** 102%

**Q.** What about the pIC50 [1, 3] of the same compound?
**A.** 8.05

**Q.** And the inhibition at 0.1 µM ([2]; 100 nM, read-out: LARS2 inhibitory rate (%))?
**A.** 75%

**Q.** And the inhibition at 1 µM ([2]; 1000 nM, read-out: LARS2 inhibitory rate (%))?
**A.** 96%

**Q.** What about the pIC50 [2, 3] of the same compound?
**A.** 7.51

Source: patent US20210253518A1, “KINASE INHIBITOR” (NISSAN CHEMICAL CORPORATION, priority 2018, published 2021)
